Our source for the Activity values is ChEMBL document CHEMBL1151104, “Mollinedine, a New Alkaloid from Mollinedia costaricensis” (J Nat Prod, 1988).

Experiment [1] is filed under the species Cavia porcellus. The experiment is described as follows: Inhibition of CaCl2-induced myocardial arrhythmias in guinea pig. The class given is functional, organism-based.
For experiment [2], the species on record is Rattus norvegicus. The experiment is described as follows: Inhibition of ouabain-induced myocardial arrhythmias in rat. In kind it is functional, organism-based.

The source made the active and inactive calls. The rule behind the calls is not given here.

`c1cc2cc3c(cc2c(Cc2ccc4c(c2)OCO4)n1)OCO3`: the result in experiment [1] and in experiment [2] was Active.
